Assay results as given in US20230357162A1, “COMPOUNDS, COMPOSITIONS AND METHODS” (Denali Therapeutics Inc., priority 2020, published 2023).

System: IL-1β secretion, THP-1 cells
Experiment: IL-1β secretion assay in PMA-differentiated THP-1 cells stimulated with LPS and nigericin (ELISA readout)
Assay type: cell-based
Details: Homo sapiens, THP-1, inhibition of IL-1β secretion, 25 ng/mL LPS then nigericin
Protocol: Compounds as provided herein were tested in the following assay. Cell culture medium employed contained RPMI 1640 medium (89%), FBS (10%), Pen/Strep (1%), and 2-mercaptoethanol (0.05 mM). Freezing medium was made up of 90% FBS and 10% DMSO. THP-1 cells were removed from the liquid nitrogen and placed into a 37° C. water bath to thaw, until signs of ice dissipated. The cells were then added to 9 mL of warm cell culture medium and centrifuged for 5 minutes at 1000 rpm. The supernatant was discarded, and the cells were resuspended in new cell culture medium. THP-1 cells were then split and cultured in the cell culture medium, being passaged every 2-3 days with the cell density will be maintained between 5×10^5 and 1.5×10^6 viable cells/mL.
PMA was dissolved in DMSO to make a stock solution at 5 mg/ml and stored in 10 µl aliquots at -20° C. for single use. PMA is added to normal growth medium. LPS was diluted with 1 mL of water solution to provide a 1 mg/mL stock solution and stored in 15 µl aliquots at -20° C. for single use. Nigericin is diluted in ice cold 100% ethanol to 5 mg/ml (6.7 mM) and stored in 75 µL aliquots at -20° C. for single use. Serum-free media contains RPMI 1640 medium (99%), Pen/Strep (1%), and 2-mercaptoethanol (0.05 mM). The two control conditions used to qualify and normalize test compound dose-response curves were as follows: High Control = 25 ng/mL LPS, 5 µM Nigericin, 0.5% DMSO, Low Control = 25 ng/mL, LPS, 0.5% DMSO.
THP-1 cells were diluted to provide a suspension at a concentration of 1.0×10^6 cells/mL with the total volume of suspension required to enable the desired number of assay plates. The growth media was supplemented with PMA (5 ng/mL final concentration) and the cells were incubated at 37° C. under a humidified atmosphere of 5% CO2 for 40 h.
All media was carefully aspirated from each culture flask. The cells were washed carefully with 1x DPBS. The cells were then briefly digested with trypsin LE for 5 minutes at 23° C. and immediately resuspended in cell growth media. After resuspension, the cells were centrifuged at 1000 rpm for 3 minutes and the supernatant was discarded. The cells were resuspended in DPBS and once again centrifuged at 1000 rpm for 5 minutes. The supernatant was discarded and the cell pellet was resuspended in serum-free media supplemented with LPS (25 ng/mL final concentration) to enable the distribution of 30 K THP-1 cells within 45 µL of media into each well of 384-well PDL-coated plates. The 384-well plates were then incubated at 37° C. under a humidified atmosphere of 5% CO2 for 2 h. Following this period, test compounds were dispensed by Tecan across the desired concentration range with all wells normalized to a final 0.5 % DMSO concentration. The plates were then then incubated at 37° C. under a humidified atmosphere of 5% CO2 for 1 h. Following this period, 5 µL of the […] nigericin stock solution was added to each of the appropriate wells and plates were centrifuged at 1000 rpm for 30 seconds. The plates were the immediately reintroduced to the incubator at 37° C. under a humidified atmosphere of 5% CO2 for 2 h. After this time, 35 µL/well of supernatant was collected and transferred into v-bottom plate and centrifuged at 1000 rpm for 1 minute. These supernatant aliquots were analyzed using an IL-Iβ detection kit as described below. If needed, the test samples could be snap frozen and stored at -80° C. until analyzed.
To prepare each ELISA plate, capture antibody (mAb Mt175) was diluted with PBS to a final concentration of 2 µg/mL and then 20 µL of this solution was added to each well of the ELISA plate. Each plate was allowed to incubate overnight at 4° C. The next day, the capture antibody solution was removed and discarded. Each ELISA plate was washed 4 times with PBST followed by the addition of 25 µL/well of blocking buffer (Licor-927-40010) supplemented with 0.1% Tween 20. Each ELISA plate was then allowed to incubate for 1 hour at 23° C. […]

IC50 (class column of Table 3) [nM]	IC50 (numeric column of Table 3) [nM]	SMILES
< 10000	2290	CC(Oc1nn(CC(=O)Nc2ncc(F)cn2)c(=O)c2ccc(Br)cc12)C1CC1 (centres unmarked) [Example 169]
< 10000	318	O=C(Cn1nc(C(F)CF)c2cc(Br)ccc2c1=O)Nc1ncc(F)cn1 (centres unmarked) [Example 139, 2-[6-bromo-4-(1,2-difluoroethyl)-1-oxophthalazin-2-yl]-N-(5-fluoropyrimidin-2-yl)acetamide]
< 10000	455	CC(F)COc1nn(CC(=O)Nc2ncc(F)cn2)c(=O)c2ccc(Br)cc12 (centres unmarked) [Example 162]
< 10000	486	O=C(Cn1nc(C(F)F)c2cc(Br)ccc2c1=S)Nc1ncc(F)cn1 [Example 179, 2-[6-bromo-4-(difluoromethyl)-1-thioxophthalazin-2-yl]-N-(5-fluoropyrimidin-2-yl)acetamide]
< 10000	491	N#Cc1cnc(NC(=O)Cn2nc(OC3CC3)c3cc(Br)ccc3c2=O)c(F)c1 [Example 151]
< 10000	1530	CC(C)c1nn(CC(=O)Nc2ncc(F)cc2Cl)c(=O)c2ccc(Br)cc12 [Example 115, 2-(6-bromo-1-oxo-4-propan-2-ylphthalazin-2-yl)-N-(3-chloro-5-fluoropyridin-2-yl)acetamide]
< 10000	3770	COCCOc1nn(CC(=O)Nc2ncc(F)cn2)c(=O)c2ccc(Br)cc12 [Example 163]

Continued, molecule first:

SMILES	IC50 (class column of Table 3) [nM]	IC50 (numeric column of Table 3) [nM]
CSc1ccc2c(=O)n(CC(=O)Nc3ncncc3F)nc(C(C)C)c2n1 [Example 23, N-(5-fluoropyrimidin-4-yl)-2-(2-methylsulfanyl-5-oxo-8-propan-2-ylpyrido[2,3-d]pyridazin-6-yl)acetamide]	< 10000	2070
CC(C)c1nn(CC(=O)Nc2c(F)cnn2C)c(=O)c2ccc(Br)cc12 [Example 50, 2-(6-bromo-1-oxo-4-propan-2-ylphthalazin-2-yl)-N-(4-fluoro-2-methylpyrazol-3-yl)acetamide]	> 15000	27500
Cc1cc(NC(=O)Cn2nc(C(C)C)c3cc(Br)ccc3c2=O)n(C)n1 [Example 64, 2-(6-bromo-1-oxo-4-propan-2-ylphthalazin-2-yl)-N-(2,5-dimethylpyrazol-3-yl)acetamide]	< 10000	392
CC(O)c1nn(CC(=O)Nc2ncccn2)c(=O)c2ccc(Br)cc12 (single isomer, unassigned) [Example 101, 2-(6-bromo-4-(1-hydroxyethyl)-1-oxophthalazin-2(1H)-yl)-N-(pyrimidin-2-yl)acetamide]	< 10000	1450
COc1ccc(NC(=O)Cn2nc(C(C)C)c3cc(Br)ccc3c2=O)cn1 [Example 29, 2-(6-bromo-1-oxo-4-propan-2-ylphthalazin-2-yl)-N-(6-methoxypyridin-3-yl)acetamide]	< 10000	286
CC(C)c1nn(CC(=O)Nc2ccncn2)c(=O)c2ccc(Br)cc12 [Example 33, 2-(6-bromo-1-oxo-4-propan-2-ylphthalazin-2-yl)-N-pyrimidin-4-ylacetamide]	< 10000	176
CC(C)c1nn(CC(=O)NCC2CCCOC2)c(=O)c2ccc(Br)cc12 (centres unmarked) [Example 57, 2-(6-bromo-1-oxo-4-propan-2-ylphthalazin-2-yl)-N-(oxan-3-ylmethyl)acetamide]	< 10000	4400
CC(C)c1nn(CC(=O)Nc2ccc3cnn(C)c3c2)c(=O)c2ccc(Br)cc12 [Example 61, 2-(6-bromo-1-oxo-4-propan-2-ylphthalazin-2-yl)-N-(1-methylindazol-6-yl)acetamide]	< 10000	943
CC(C)c1nn(CC(=O)Nc2cnc(Cl)c(F)c2)c(=O)c2ccc(Br)cc12 [Example 112, 2-(6-bromo-1-oxo-4-propan-2-ylphthalazin-2-yl)-N-(6-chloro-5-fluoropyridin-3-yl)acetamide]	< 10000	1120
